# Experimental data: patent US9193731B2, “Antimicrobial compounds and methods of making and using the same” (Melinta Therapeutics, Inc., priority 2009, dated 2015)
# Test system: Escherichia coli strain ATCC25922
# Test: standard microdilution assay to determine minimum inhibitory concentrations (MICs)
# Type: cell-based
# Conditions: Escherichia coli strain ATCC25922, microdilution
# Outline: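 Broth microdilution MIC against E. coli ATCC25922, following CLSI protocols, typically in a 100 microliter final volume. Results reported as +/− relative to a 16 micrograms/ml cutoff.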
row,Compound,E. coli ATCC25922 MIC
1,N=C(N)NCCCNCc1ccc(-n2cc3cc(-c4cc(OC(F)(F)F)cc(C(O)CCN)c4)[nH]c3nc2=O)cc1 (stereo not drawn) [Compound 2061a],+ (a “+” indicates that the compound has an MIC value of 16 micrograms/ml or less)
2,NCCCNCc1ccc(-n2cc3cc(-c4cc(C(=O)N(CCO)CCO)cc(N5CCNCC5)c4)[nH]c3nc2=O)cc1 [Compound 894],− (a “−” indicates that the compound has an MIC value greater than 16 micrograms/ml)
3,N=C(N)NCCCNCc1ccc(-n2cc3cc(-c4cccc(SCCN)c4)[nH]c3nc2=O)cc1 [Compound 1451],+ (a “+” indicates that the compound has an MIC value of 16 micrograms/ml or less)
4,N=C(N)NCCCNCc1ccc(-n2cc3cc(-c4cccc(SCCCN)c4)[nH]c3nc2=O)cc1 [Compound 1405],+ (a “+” indicates that the compound has an MIC value of 16 micrograms/ml or less)
5,N=C(N)NCCCNCc1ccc(-n2cc3cc(-c4cncc(CCCCN)c4)[nH]c3nc2=O)cc1 [Compound 2060a],+ (a “+” indicates that the compound has an MIC value of 16 micrograms/ml or less)
6,NCCCOCc1ccc(-c2cn3cc(-c4ccc(C(=O)N5CCNCC5)cc4)[nH]c3nc2=O)cc1 [Compound 931],− (a “−” indicates that the compound has an MIC value greater than 16 micrograms/ml)
7,N=C(N)NCCCNCc1ccc(-n2cc3cc(-c4cccc(OC[C@H]5CCNC5)c4)[nH]c3nc2=O)cc1 [Compound 1438],+ (a “+” indicates that the compound has an MIC value of 16 micrograms/ml or less)
8,CC(CN)CN1CCC(c2cc3cn(-c4ccc(CNCCCNC(=N)N)cc4)c(=O)nc3[nH]2)C1 (mixture of isomers) [Compound 2008a],+ (a “+” indicates that the compound has an MIC value of 16 micrograms/ml or less)
9,CC(C)(N)CCOc1cccc(-c2cc3cn(-c4ccc(CNCCCNC(=N)N)cc4)c(=O)nc3[nH]2)c1 [Compound 1410],+ (a “+” indicates that the compound has an MIC value of 16 micrograms/ml or less)
10,N=C(N)NCCCNC(=O)c1ccc(-n2cc3cc(-c4ccc(S(=O)(=O)CCCNC5CCCOC5)cc4)[nH]c3nc2=O)cc1 (stereo not drawn) [Compound 1284],− (a “−” indicates that the compound has an MIC value greater than 16 micrograms/ml)
11,NCCCNCc1ccc(-n2cc3cc(-c4cccc(S(=O)(=O)NC5CCNCC5)c4)[nH]c3nc2=O)cc1 [Compound 823],+ (a “+” indicates that the compound has an MIC value of 16 micrograms/ml or less)
12,N=C(N)NCCCNCc1ccc(-n2cc3cc(-c4cc(C(=O)N5CCN(CCO)CC5)cc(N5CCNCC5)c4)[nH]c3nc2=O)cc1 [Compound 861],− (a “−” indicates that the compound has an MIC value greater than 16 micrograms/ml)
13,N=C(N)NCCCNCc1ccc(-n2cc3cc(CCS(=O)(=O)N(CCCc4ccccc4F)C4CCNCC4)[nH]c3nc2=O)cc1 [Compound 992],+ (a “+” indicates that the compound has an MIC value of 16 micrograms/ml or less)
14,NCCCNCc1ccc(-n2cc3cc(-c4ccc(S(=O)(=O)NC5CCCNC5)cc4)[nH]c3nc2=O)cc1 (stereo not drawn) [Compound 807],+ (a “+” indicates that the compound has an MIC value of 16 micrograms/ml or less)
15,N=C(N)NCCCNCc1ccc(-n2cc3cc(-c4cccc(S(=O)(=O)N(CCCN5CCCCC5)C5CCNCC5)c4)[nH]c3nc2=O)cc1 [Compound 1027],+ (a “+” indicates that the compound has an MIC value of 16 micrograms/ml or less)
16,N=C(N)NCCCNCc1ccc(-n2cc3cc(-c4ccc(S(=O)(=O)N(CCCc5c[nH]nc5C(F)(F)F)C5CCNCC5)cc4)[nH]c3nc2=O)cc1 [Compound 897],+ (a “+” indicates that the compound has an MIC value of 16 micrograms/ml or less)
17,N=C(N)NCC(O)CNCc1ccc(-n2cc3cc(-c4ccc(S(=O)(=O)NC5CNC5)cc4)[nH]c3nc2=O)cc1 (stereo not drawn) [Compound 1416],+ (a “+” indicates that the compound has an MIC value of 16 micrograms/ml or less)
18,N=C(N)NCCCNCc1ccc(-n2cc3cc(-c4cc(CCN)cc(OCC(F)CN)c4)[nH]c3nc2=O)cc1 (stereo not drawn) [Compound 2011a],+ (a “+” indicates that the compound has an MIC value of 16 micrograms/ml or less)
19,N=C(N)NCCCNC(c1ccc(-n2cc3cc(-c4ccc(S(=O)(=O)NC5CCNCC5)cc4)[nH]c3nc2=O)cc1)C(F)(F)F (stereo not drawn) [Compound 1015],+ (a “+” indicates that the compound has an MIC value of 16 micrograms/ml or less)
20,N=C(N)NCCCNCc1ccc(-n2cc3cc(-c4ccc(S(=O)(=O)N(CCCN5CCCCC5)C5CCNCC5)cc4)[nH]c3nc2=O)cc1 [Compound 839],+ (a “+” indicates that the compound has an MIC value of 16 micrograms/ml or less)
21,N=C(N)NCCCNCc1ccc(-n2cc3cc(-c4ccc(S(=O)(=O)N(Cc5ccc(Cl)c(Cl)c5)C5CCOCC5)cc4)[nH]c3nc2=O)cc1 [Compound 898],− (a “−” indicates that the compound has an MIC value greater than 16 micrograms/ml)
22,N=C(N)NCCCNCc1ccc(-n2cc3cc(-c4ccc(S(=O)(=O)NC5CCOCC5)cc4)[nH]c3nc2=O)cc1 [Compound 864],− (a “−” indicates that the compound has an MIC value greater than 16 micrograms/ml)
23,CC1CN(S(=O)(=O)c2ccc(-c3cc4cn(-c5ccc(CNCCCN)cc5)c(=O)nc4[nH]3)cc2)CC(C)N1 (stereo not drawn) [Compound 853],+ (a “+” indicates that the compound has an MIC value of 16 micrograms/ml or less)

# Same assay, conditions: Escherichia coli, ATCC25922, Escherichia coli strain ATCC25922, microdilution; read-out: E. coli ATCC25922 MIC
row,MIC,Compound
1,< 16 µg/mL,CN1CCN(c2cccc(-c3cc4cn(-c5ccc(CNCCCN)cc5)c(=O)nc4[nH]3)c2)CC1 [Compound 677]
2,> 16 µg/mL,NCC(Cn1cc2cc(-c3ccc(S(=O)(=O)NC4CCNCC4)cc3)[nH]c2nc1=O)OCc1ccc(F)cc1 (stereo not drawn) [Compound 1085]
3,> 16 µg/mL,COC(=O)C(N)Cc1cc2cn(-c3ccc(CN(CCCN)CCCN)cc3)c(=O)nc2[nH]1 (stereo not drawn) [Compound 169]
4,> 16 µg/mL,NCCCN(CCCN)Cc1ccc(-n2cc3cc(CCc4ccccc4)[nH]c3nc2=O)cc1 [Compound 183]
5,< 16 µg/mL,N=C(N)NCCCNCc1ccc(-c2cn3cc(-c4ccc(C(=O)NCCCN5CCNCC5)cc4)[nH]c3nc2=O)cc1 [Compound 722]
6,< 16 µg/mL,NCCCNCc1ccc(-n2cc3cc(-c4ccc(S(=O)(=O)NC5CCNCC5)cc4)[nH]c3nc2=O)cc1 [Compound 852]
7,> 16 µg/mL,NCCCOc1cccc(-c2cc3cn(-c4ccc(CN)cc4)c(=O)nc3[nH]2)c1 [Compound 1087]
8,< 16 µg/mL,NC1CCN(Cc2ccc(-n3cc4cc(-c5ccc(S(=O)(=O)NC6CCNCC6)cc5F)[nH]c4nc3=O)cc2)CC1 [Compound 263]
9,> 16 µg/mL,CNCc1ccc(-n2cc3cc(-c4ccc(S(=O)(=O)N(CCCN5CCOCC5)C5CCNCC5)cc4)[nH]c3nc2=O)cc1 [Compound 1037]
10,< 16 µg/mL,N=C(N)NCCCNCc1ccc(-n2cc3cc(-c4cccc(CN5CCNCC5)c4)[nH]c3nc2=O)cc1 [Compound 1233]
11,> 16 µg/mL,N=C(N)NCCCNCc1ccc(-n2cc3cc(-c4ccccc4OCCCN4CCNCC4)[nH]c3nc2=O)cc1 [Compound 1166]
12,< 16 µg/mL,N=C(N)NCCCNCc1ccc(-c2cn3cc(-c4ccc(S(=O)(=O)N5CCNCC5)cc4)[nH]c3nc2=O)cc1 [Compound 788]
13,< 16 µg/mL,N=C(N)NCCCNCc1ccc(-c2cn3cc(-c4ccc(S(=O)(=O)NC5CCNCC5)cc4)[nH]c3nc2=O)cc1 [Compound 772]
14,< 16 µg/mL,NC(=O)/N=C(\N)NCCCNCc1ccc(-n2cc3cc(-c4ccc(C(=O)NC5CCNCC5)cc4)[nH]c3nc2=O)cc1 [Compound 228]
15,> 16 µg/mL,CN(C)CCCOc1cccc(-c2cc3cn(-c4ccc(CNC(=O)CCNC(=N)N)cc4)c(=O)nc3[nH]2)c1 [Compound 1202]
16,> 16 µg/mL,CS(=O)(=O)c1ccc(-c2cn3cc(-c4ccc(CNCCCNC(=N)N)cc4)c(=O)nc3[nH]2)cc1 [Compound 632]
17,< 16 µg/mL,CN1CCN(c2cccc(-c3cc4cn(-c5ccc(CNCCCNC(=N)N)cc5)c(=O)nc4[nH]3)c2)CC1 [Compound 678]
18,< 16 µg/mL,NCCCNCc1ccc(-n2cc3cc(-c4ccc(S(=O)(=O)N(Cc5ccc(Cl)c(Cl)c5)C5CCNCC5)cc4)[nH]c3nc2=O)cc1 [Compound 697]
19,< 16 µg/mL,NCCCNCc1ccc(-n2cc3cc(CCS(=O)(=O)N(CC4CCOCC4)C4CCNCC4)[nH]c3nc2=O)cc1 [Compound 923]
20,< 16 µg/mL,CN(CCO)C(=O)c1ccc(-c2cn3cc(-c4ccc(CNCCCNC(=N)N)cc4)c(=O)nc3[nH]2)cc1 [Compound 720]
21,> 16 µg/mL,NCc1ccc(-n2cc3cc(-c4ccc(S(=O)(=O)N(CCCC5CCCC5)C5CCNCC5)cc4)[nH]c3nc2=O)cc1 [Compound 946]
22,< 16 µg/mL,CSCCN(C1CCNCC1)S(=O)(=O)c1ccc(-c2cc3cn(-c4ccc(CN(CCCN)CCCN)cc4)c(=O)nc3[nH]2)cc1 [Compound 232]
23,> 16 µg/mL,N=C(N)NCCCNCc1ccc(-n2cc3cc(CSc4n[nH]c(N)n4)[nH]c3nc2=O)cc1 [Compound 636]
24,< 16 µg/mL,N=C(N)NCCCNCc1ccc(-c2cn3cc(-c4ccc(C(=O)N5CCN(CCO)CC5)cc4)[nH]c3nc2=O)cc1 [Compound 713]
25,> 16 µg/mL,NCCCNCc1ccc(-c2cn3cc(-c4ccc(C(=O)NC5CCOCC5)cc4)[nH]c3nc2=O)cc1 [Compound 799]
26,> 16 µg/mL,NCCCNCc1ccc(-c2cn3cc(-c4ccc(C(=O)NN5CCOCC5)cc4)[nH]c3nc2=O)cc1 [Compound 723]
27,< 16 µg/mL,N=C(N)NCCCNCc1ccc(-n2cc3cc(C4CCCN(CCCF)C4)[nH]c3nc2=O)cc1 (stereo not drawn) [Compound 2017a]
28,> 16 µg/mL,CN(Cc1ccccc1)Cc1cc2cn(-c3ccc(CNCCCNC(=N)N)cc3)c(=O)nc2[nH]1 [Compound 906]
29,> 16 µg/mL,NCc1ccc(-n2cc3cc(-c4ccc(S(=O)(=O)N(CCCc5ccc(F)cc5)C5CCNCC5)cc4)[nH]c3nc2=O)cc1 [Compound 1053]
30,> 16 µg/mL,CC(=O)NCCCN1CCCC(c2cc3cn(-c4ccc(CNCCCNC(=N)N)cc4)c(=O)nc3[nH]2)C1 (stereo not drawn) [Compound 2021a]

row,Compound,MIC
1,NCCCNCc1ccc(-c2cn3cc(-c4ccc(C5=CCNCC5)cc4)[nH]c3nc2=O)cc1 [Compound 649],< 16 µg/mL
